The values that follow come from paper PMC6851892 (Clinical Pharmacology in Drug Development, 2019).

The format of data set [1] is in vivo, human (healthy subjects). The settings on record: human, plasma, oral.
For data set [2] the following is noted: cited from earlier work.
For data set [3], the system named is CYP enzymes or transporters. The settings on record: in vitro; cited from earlier work.
For data set [4] the following is noted: cited from earlier work. This is another data set of the same source.
For data set [5] the following is noted: primary circulating metabolites of ertugliflozin; cited from earlier work.
The conditions of data set [6]: cited from earlier work. This is another data set of the same source.
Setting [7] is: oral radioactive ertugliflozin dose.

One may read the Tmax as the time at which the peak concentration occurs. As usually defined, the half-life is the time in which the quantity being followed falls by half. As to `CCOc1ccc(Cc2cc([C@]34OC[C@](CO)(O3)[C@@H](O)[C@H](O)[C@H]4O)ccc2Cl)cc1` [Ertugliflozin], in data set [1], the Tmax is roughly 1 h and the half-life fell in the range of 11.2 to 13.8 h. In data set [2], the “Unmetabolized drug recovered in urine, % of the administered dose” value is recorded as 1.5%. Moreover, the AUC dose proportionality result in data set [2] (dose range of 0.5 to 300 mg) is given as “increases in a dose‐proportional manner”. For the same compound, the “Median time to maximum plasma concentration (Tmax)” value in data set [2] (fed state, oral) was roughly 2 h. Moreover, in data set [2] (setting [7]), the “Excretion of radioactivity in feces, % of the dose” value is reported as 40.9% and the “Excretion of radioactivity in urine, % of the dose” value is on record as 50.2%. Also, in data set [3], the “Inhibition or induction of CYP enzymes or transporters” value was “do not inhibit or induce CYP enzymes or transporters”. For the same compound, the “Biopharmaceutical Classification System class” value in data set [4] was “class 1”.
As to `CCOc1ccc(Cc2cc([C@]34OC[C@](CO)(O3)[C@@H](O)[C@H](O[C@@H]3O[C@H](C(=O)O)[C@@H](O)[C@H](O)[C@H]3O)[C@H]4O)ccc2Cl)cc1` [M5c, 3‐O‐β glucuronide], the Pharmacological activity entry in data set [5] is “pharmacologically inactive”.
Regarding `N[C@@H](CC(=O)N1CCn2c(nnc2C(F)(F)F)C1)Cc1cc(F)c(F)cc1F` [Sitagliptin], in data set [1], the time to peak (Tmax) was in the range of 2.2 to 4 h and the half-life was in the range of 11.2 to 12.5 h. In data set [6], the Excreted in feces was 13%, the “Excreted mostly unmetabolized in urine” value is reported as 87% and the Renal clearance result was “approximately 388 mL/min”. The AUC dose dependence entry in data set [6] (healthy subjects) is recorded as “increases in an approximately dose‐dependent manner”. Besides, the “Biopharmaceutical Classification System class” value in data set [4] was “class 1”.
